Ends that are not written are not given here.
What was measured:
[1] = Pharmacodynamic study of VD in canines: 10-day subcutaneous infusion in high-rate paced heart failure model; type: in vivo, canine; details: dog, plasma; Day 10 of continuous vessel dilator infusion 100 ng/kg·min SC; Day 0 0.66+/−0.37; read-out: Pre-proANF (56-92) plasma concentration (radioimmunoassay)
Procedure: A pharmaceutical formulation of VD was prepared in a Tris buffer. 16.0 g glycerol, 6.05 g tris-(hydroxymethyl)-aminomethane (“Tris”), 2.50 g meta cresol were mixed in a 1.00 L volumetric flask. Approximately 900 mL nanopure water was added to the volumetric flask and the mixture was magnetically stirred to reach complete dissolution. 4 normal hydrochloric acid was used to adjust pH to 7.3 at 25° C. Then, the flask was filled to 1 L mark with nanopure water. The pH was rechecked and verified to be 7.3 at 25° C. The pH 7.3 Tris buffer was stored at 2-8° C. until use.
Lyophilized VD peptide (Bachem) was weighted into a glass vial and dissolved into a known volume of the Tris buffer to a concentration between 1 mg/mL and 10 mg/mL. The VD peptide was dissolved by gentle mixing and the solution was allowed to rest for between 20 and 30 minutes. The pH of the solution was checked and adjusted to 7.3 with 0.1 N sodium hydroxide. […]
Seven days prior to the beginning of HRP (Day −7), all dogs were instrumented for ventricular pacing with an IPG (implantable pulse generator) including an RA (right atrium) and RV (right ventricle) lead, and a DSI (Digital Sciences International) device in the femoral artery for arterial blood pressure monitoring. Glomerular filtration rate (GFR) was measured by iohexol clearance on the day before the beginning of HRP (Day −1). […]

[2] = type: physicochemical
From the text: Elliotts B® Solution is a sterile, non-pyrogenic, isotonic buffer that is approved by the United States Food and Drug Administration (FDA) for intrathecal administration of methotrexate sodium and cytarabine. Elliotts B® Solution will be used as a diluent for VD since it provides the appropriate isotonicity and pH attributes desired for SC administration. […] The detailed contents of Elliots B® Solution are provided in the Trial Dispensing Protocol. Storage conditions of the raw material, Elliotts B® Solution, as well as the reconstitution method will be supplied in a Pharmacy Guideline provided during the study.

EVVPPQVLSEPNEEAGAALSPLPEVPPWTGEVSPAQR [VD, Vessel Dilator]
level at 240 h [1]: 41.1 ng/mL
stability and compatibility of VD in Elliotts B Solution [2]: has been demonstrated

— patent publication US9616107B2, “Therapy for kidney disease and/or heart failure” (priority 2011, dated 2017)
